Legend:
[1] = test system: dendritic cells (both myeloid and monocyte-derived); assay: Activation and maturation of dendritic cells in vitro; format: cell-based, human
Experimental: (§1) The effect of GLA adjuvant in vitro on various human cell types was evaluated.

OVA-sensitized mice = assay: Prophylactic dosing regimens in murine model of allergy; format: in vivo, mouse
Experimental: Three different prophylactic dosing regimens of GLA adjuvant, in an aqueous formulation, were evaluated in the same murine model of allergy described in Example 2. Mice were divided into three treatment arms (20 mice per group), treated as follows starting at 1 week post OVA sensitization, and then challenged with OVA or saline (negative control):
Vehicle-treated at day 14; Saline challenged (negative control) Vehicle-treated at day 14; OVA challenged (positive control) GLA-treated at day 14, with a single dose of GLA (2 ug/animal, i.n.); OVA challenged GLA-treated on days 14, 15, 16, 17, with 4 doses of GLA on consecutive days (each dose 2 ug/animal, i.n.); OVA challenged GLA+Ag-treated on day 14, single dose GLA (2 ug/animal, i.n.)+OVA antigen (20 ug/animal, i.n.); OVA challenged
The animals were challenged with OVA or saline i.n. for 4 consecutive days, 5-7 days post treatment (at days 22, 23, 24 and 25). Airway hyperresponsiveness (AHR) was determined at 1 or 2 days post challenge (the large number of animals required two days to complete the AHR testing). Bronchoalveolar lavage fluid (BALF), thoracic lymph nodes and spleen were collected for FACS & cytokine analysis, and serum was collected for IgE and IgG levels.

[2] = test system: Male Balb/c mice sensitized with OVA; assay: Murine model of chronic allergy (OVA-induced airway inflammation and hyperreactivity); format: in vivo, mouse
Experimental: The effect of GLA was evaluated in a chronic model Of OVA-induced airway inflammation and airway hyperreactivity in mice. Male Balb/c mice were sensitized systemically with OVA i.p. over a 2 week period (days 0 & 14). One week later, they were challenged with OVA i.n for 3 consecutive days (days 22 through 24). The animals were then treated once with GLA, in an aqueous formulation, i.n., 1 day post-challenge (day 25) as follows (20 mice per group):
Vehicle-treated; Saline challenged (negative control) Vehicle-treated; OVA challenged (positive control) GLA-treated, single dose (2 ug/animal, i.n.); OVA challenged
The animals were challenged again with OVA i.n. 1 month later (days 55 & 56). AHR as described above in Example 2 was performed 1-2 days post 2nd challenge (the large number of animals required two days to complete the AHR testing). Bronchoalveolar lavage fluid (BALF), thoracic lymph nodes and spleen were collected for FACS & cytokine analysis, and serum was collected for IgE and IgG levels.

[3] = test system: Male cynomolgus macaques with a known sensitivity to inhaled Ascaris suum; assay: Primate model of allergic rhinitis, intranasal adjuvant; format: in vivo, cynomolgus macaque
Experimental: GLA adjuvant was evaluated in a nonhuman primate allergic rhinitis model. Male cynomolgus macaques with a known sensitivity to inhaled Ascaris suum were treated with a composition comprising a GLA adjuvant, in an aqueous formulation, via intranasal delivery.
12 animals were assigned randomly to each of vehicle or drug treatment groups. The drug treatment group received 100 μl of a composition containing 5.0 μg GLA adjuvant in an aqueous formulation, intranasally in each nostril, for a total dose of 10 μg. The vehicle group received 100 μl of vehicle in each nostril. The adjuvant or vehicle was administered intranasally once weekly for 4 consecutive weeks. All intranasal dosing was administered using a Penn Century Microsprayer.
The animals were challenged with Ascaris suum into the left nostril concurrent with treatment on days 0 and 14 (at the first and third treatment times).
Animals with severe rhinitis have reduced nasal area or increased nasal congestion as compared to those with improved response and increased nasal area or decreased nasal congestion. Nasal lavage samples were also obtained and total and differential cell count were evaluated.
Briefly, animals were sedated and placed on a ventilator. Blood samples were drawn. A baseline Acoustic Rhinometer measurement (nasal volume and nasal minimum cross-sectional area) was taken in the left nostril followed by instillation of 100 μl saline using a microspayer. After instillation of saline, Acoustic Rhinometry measurements (nasal volume and nasal minimum cross-sectional area) were taken at 2 minutes. Next 100 μl of A. suum (10.0 mg/ml) was instilled into the left nostril using a microsprayer and Acoustic Rhinometry measurements were taken at 1, 2, 3 minutes. Fifteen minutes after A. suum challenge a nasal lavage was performed using 3.0 ml saline injected into the left nostril. After nasal lavage, sedation was reversed.
Total cell count in the nasal lavage samples was determined using the Advia120 hematology analyzer (SOP BW-INM-Resp-SOP-09033). Differential cell counts were performed with cystospins manually on 200 cells using standard morphological criteria.

[4] = test system: Male cynomolgus macaques with a known sensitivity to inhaled Ascaris suum; assay: Primate model of allergic rhinitis, intramuscular adjuvant; format: in vivo, cynomolgus macaque; conditions: GLA 10 ug intramuscularly, four weekly doses; ascaris antigens intranasally
Experimental: GLA adjuvant was evaluated in a nonhuman primate allergic rhinitis model. Male cynomolgus macaques with a known sensitivity to inhaled Ascaris suum were treated with a composition comprising a GLA adjuvant, in an oil-based emulsion formulation, with and without allergen, via intramuscular delivery.
Animals (n=12) were treated with four doses of GLA (10 ug) at weekly intervals and were exposed to Ascaris suum antigens at the same time. The evaluation of the response was determined by acoustic rhinometry which measured the nasal area as an indication of congestion Animals with severe rhinitis have reduced nasal area or increased nasal congestion as compared to those with improved response and increased nasal area or decreased nasal congestion.
In this study, animals treated with GLA-SE were compared with animals treated with SE alone. In addition, ascaris antigens in conjunction with GLA were tested. Ascaris antigens were either delivered in combination with GLA via the intramuscular route of administration, or were delivered intranasally separate from the intramuscular GLA treatment.

[5] = test system: PBMCs from peanut allergic subjects; assay: T cell proliferation and cytokine expression of PBMCs from peanut-allergic subjects; format: cell-based, human
Source text: PBMCs were collected from peanut allergic and non-allergic subjects (n=4) and evaluated for T cell proliferation and cytokine expression after exposure to peanut extract and GLA. […] In addition, these samples had increased tolerogenic IL-10 expression and […] IL-2 expression indicative of inhibition of T cell proliferation.

[6] = test system: PBMCs from Timothy Grass allergic subjects; assay: Cytokine expression of PBMCs from Timothy grass-allergic subjects; format: cell-based, human; conditions: Timothy grass allergen and GLA
Source text: PBMCs were collected from Timothy Grass allergic and non-allergic subjects and evaluated for T cell cytokine expression after exposure to Timothy grass allergen and GLA. As shown in FIG. 16A-16D, GLA decreased IL-5 and increased IFN-γ, IL-12 and TNF-alpha cytokine response to Timothy grass allergen.

[7] = test system: mice presensitized with intra-gastric RPE; assay: Murine model of peanut allergy, related study with GLA-SE +/- peanut extract; format: in vivo, mouse; conditions: with or without antigen, s.c.
Experimental: In a related study, mice were presensitized with intra-gastric RPE six times at days 0, 1, 2, 7, 14 and 21 (FIG. 15). On days 29, 35, 42 and 49, mice were treated subcutaneously with 2 ug GLA-SE or 2 ug GLA-SE+50 ug RPE. Mice were subsequently challenged by intraperitoneal administration on study day 55 with 12 mg RPE. Anaphylaxis scores and body temperature of mice were then measured. […] Disease scoring was as follows: 1: mild anaphylaxis (scratching, mild snout swelling); 2: Moderate anaphylaxis (mod swelling, mild lethargy) 3: =Severe anaphylaxis (severe swelling, lethargy); 4: Very severe anaphylaxis (moribund, labored breathing); 5: Death.

various human cell types = assay: Effect of GLA adjuvant in vitro on cytokine expression of human cells; format: cell-based
Experimental: as §1

[8] = 4 doses on days 14, 15, 16, 17, each 2 ug/animal i.n.
[9] = single dose day 14, 2 ug/animal i.n.
[10] = treatment period (weeks 1-4) and 4 weeks post treatment (weeks 5-8)
[11] = Day 1 after peanut extract and GLA exposure

CCCCCCCCCCCCCC(=O)OC(CCCCCCCCCCC)CC(=O)NC1C(OCC2OC(O)C(NC(=O)CC(O)CCCCCCCCCCC)C(OC(=O)CC(O)CCCCCCCCCCC)C2O)OC(CO)C(OP(=O)(O)O)C1OC(=O)CC(CCCCCCCCCCC)OC(=O)CCCCCCCCCCCCC (centres unmarked) [GLA, glucopyranosyl lipid A]
activation and maturation of dendritic cells [1]: induced activation and maturation | CD3+ T cells in BALF (OVA-sensitized mice; [8]): decreased | eosinophil in BALF (OVA-sensitized mice; [8]): decreased | total leukocytes in BALF (OVA-sensitized mice; [8]): decreased | cellularity systemically, in spleen or lymph nodes (OVA-sensitized mice; i.n. GLA treatment): did not alter | numbers of CD3+ T cells in BALF (OVA-sensitized mice; [9]): did not alter | numbers of eosinophils in BALF (OVA-sensitized mice; [9]): did not alter | numbers of macrophages in BALF (OVA-sensitized mice; [9]): did not alter | leukocyte cell count in BALF (including eosinophil, macrophage or CD3+ T cell counts) ([2]; single dose 2 ug/animal i.n.): did not alter | time after GLA dosing for which effects could be observed ([2]; single dose 2 ug/animal i.n.): at least 1 month | airway hyperresponsiveness ([2]; single dose 2 ug/animal i.n. day 25, 1 month before allergen challenge): attenuate | IL-4 expression in the airway after allergen challenge ([2]; single dose 2 ug/animal i.n. one month before allergen challenge): attenuate | percentage of baseline nasal cross sectional area ([3]; 10 μg intranasal once weekly for 4 weeks, compared with vehicle): increased | antigen-induced nasal congestion ([3]; aqueous formulation, 10 μg intranasal once weekly for 4 weeks, A. suum challenge): reduced | differential cell count (lymphocyte, monocyte, granuolocyte, neutrophil, eosinophil or basophil cell numbers) [3, 10]: not altered | platelet counts [3, 10]: did not alter | red blood cell counts [3, 10]: did not alter | white blood cell counts [3, 10]: did not alter | nasal rhinitis scores [4]: did not improve | IL12p70 (IL-12) expression [5, 11]: increased | IL-2 expression [5, 11]: increased | interferon gamma expression [5, 11]: increased | tolerogenic IL-10 expression [5, 11]: increased | CD4 T cell proliferation ([5]; Day 6 after exposure to peanut extract and GLA): dose-dependent antigen specific inhibition | IL-12 cytokine response to Timothy grass allergen ([6]; 2 day culture): increases | TNF-alpha cytokine response to Timothy grass allergen ([6]; 2 day culture): increases | IFN-γ cytokine response to Timothy grass allergen ([6]; 6 day culture): increases | IL-5 cytokine response to Timothy grass allergen ([6]; 6 day culture): decreases | peanut allergy in a mouse model [7]: attenuates | GM-CSF expression (various human cell types): induced expression | IL-1β expression (various human cell types): induced expression | IL-6 expression (various human cell types): induced expression | IL-8 expression (various human cell types): induced expression | IL-10 expression (various human cell types): induced expression | TNF-α expression (various human cell types): induced expression

Source: US20160030459A1, “COMPOSITIONS AND METHODS FOR TREATING ALLERGIC CONDITIONS” (IMMUNE DESIGN CORP., priority 2014, published 2016)
